Patent US10174355B2, “Method for glycosylation of ginsenoside using a glycosyltransferase derived from panax ginseng” (KOREA ADVANCED INSTITUTE OF SCIENCE AND TECHNOLOGY, priority 2014, dated 2019)

Experiments:
PgUGT71A1 = assay: In-vitro glycosyltransferase assay of recombinant PgUGT71A1 with ginsenoside substrates and UDP-glucose; type: biochemical, Panax ginseng; conditions: for conversion by PgUGT71A1 (product formed), HPLC / conversion by PgUGT71A1 (product formed), TLC: ginsenoside 5 mM, UDP-glucose 50 mM, 35° C., 12 hours; for conversion by PgUGT71A1 (product formed), HPLC: FIG. 2 bottom; for conversion by PgUGT71A1 (product formed), TLC: FIG. 2 top; for reaction with PgUGT71A1 confirmed by thin-layer chromatography: screen of 9 ginsenosides incubated with recombinant PgUGT71A1 in the presence of UDP-glucose; for conversion by PgUGT71A1 (product formed), TLC / reaction with PgUGT71A1 confirmed by thin-layer chromatography: TLC
Protocol: A glycosyltransferase assay was conducted in a reaction buffer (10 mM PBS buffer, pH 7) containing the purified PgUGT71A1 (30 μg), a ginsenoside compound (5 mM) and UDP-glucose (50 mM). For this assay, 4 different types of ginsenosides, i.e., protopanaxadiol (PPD), protopanaxatriol (PPT), Rh2 and Rg3, were caused to react the enzyme of the present disclosure.
The reaction mixture was incubated at 35° C. for 12 hours and the resulting products were analyzed by thin-layer chromatography (TLC) or high-performance liquid chromatography (HPLC).
The TLC analysis was performed using a mobile phase (acetone:methanol:DDW=65:35:10 vol/vol) and a 60F254 silica gel plate (Merck, Germany). The resolved product on the TLC plate was detected by spraying 10% (vol/vol) sulfuric acid (H2SO4) and heating at 110° C. for 5 minutes.
The HPLC analysis was performed using an ODS(2) C18 column (Phenomenex, USA). The condition of gradient application of water and acetonitrile was as follows: flow rate=1 mL/min, 0 minute, 68% water and 32% acetonitrile; 8 minutes, 35% water and 65% acetonitrile; 12 minutes, 0% water and 100% acetonitrile; 20 minutes, 0% water and 100% acetonitrile; 20.1 minutes, 68% water and 32% acetonitrile; and 28 minutes, 68% water and 32% acetonitrile.
The ginsenosides were detected by monitoring at a wavelength of 203 nm using a UV detector (Agilent, USA).
First, the recombinant PgUGT of Example 1, PgUGT71A1, was incubated with 9 different types of ginsenosides (PPD, Rh2, Rg3, C—K, F2, Rd, PPT, F1, and Rh1) in the presence of UDP-glucose.
In order to confirm the result again, 4 different types of ginsenosides (PPD, PPT, Rh2, and Rg3) were incubated with PgUGT71A1, and the products converted by the recombinant PgUGT71A1 were analyzed by TLC. The result is shown at the top of FIG. 2. The result was confirmed by comparing the locations of the migrating spots with those of PPD, PPT, Rh2, Rg3, C—K, F2, Rd, and F1 used as standard samples.

PgUGT71A1 expression = assay: Expression of PgUGT71A1 in ginseng leaves and roots after methyl jasmonate treatment (real-time PCR, NGS); type: in vivo, Panax ginseng; conditions: 200 μM MeJA sprayed onto leaves of 15-month-old ginseng daily for 5 days, sampled 6th day, FIGS. 3 and 4
Protocol: Total RNA was isolated from the leaf or root of 15-month-old ginseng using the Spectrum Plant Total RNA kit (Sigma-Aldrich). 200 μM methyl jasmonate (MeJA) was sprayed onto the leaves of ginseng every day for a total of 5 days and samples were collected on the 6th day. 1 μg of the total RNA was used for cDNA synthesis.
The expression level of different genes was examined by quantitative RT-PCR using the primer sets listed in Table 1, and the result was normalized to the expression level of tubulin.
RNA was extracted from the leaf and root of ginseng which had been treated and not treated with MeJA, and a cDNA library was constructed from 1 μg of the total RNA using the TruSeq RNA library kit. Following polyA-selected RNA extraction, RNA fragmentation and random hexamer-primed reverse transcription, 100 nt paired-end sequencing was conducted using Illumina HiSeq2000.
The resulting sequences were subjected to de novo transcriptome assembly using the Trinity (2011-11-26 version) program. The produced contigs (transcripts) were analyzed using Blast (version 2.2.25+). The GO database (released on 20-04-2012) and the NR database of NCBI (download date: 2012/05/07) were used. […] The expression level was expressed as fragments per kilobase of exon per million fragments mapped (FPKM) with a program released by the Trinity group using the RSEM algorithm. […]

CC(C)=CCCC(C)(O)[C@H]1CC[C@]2(C)[C@@H]1[C@H](O)C[C@@H]1[C@@]3(C)CC[C@H](O)C(C)(C)[C@@H]3CC[C@]12C (stereo in doubt) [PPD, protopanaxadiol]
conversion by PgUGT71A1 (product formed), HPLC (PgUGT71A1): converted PPD to C—K
conversion by PgUGT71A1 (product formed), TLC (PgUGT71A1): converted PPD to compound K (C—K)
reaction with PgUGT71A1 confirmed by thin-layer chromatography (PgUGT71A1): reaction occurred

CC(C)=CCC[C@](C)(O)[C@H]1CC[C@]2(C)[C@@H]1[C@H](O)C[C@@H]1[C@@]3(C)CC[C@H](O[C@@H]4O[C@H](CO)[C@@H](O)[C@H](O)[C@H]4O[C@@H]4O[C@H](CO)[C@@H](O)[C@H](O)[C@H]4O)C(C)(C)[C@@H]3CC[C@]12C [Rg3]
conversion by PgUGT71A1 (product formed), HPLC (PgUGT71A1): Rg3 to Rd
conversion by PgUGT71A1 (product formed), TLC (PgUGT71A1): Rg3 to Rd
reaction with PgUGT71A1 confirmed by thin-layer chromatography (PgUGT71A1): reaction occurred

CC(C)=CCC[C@](C)(O)[C@H]1CC[C@]2(C)[C@@H]1[C@H](O)C[C@@H]1[C@@]3(C)CC[C@H](O[C@@H]4O[C@H](CO)[C@@H](O)[C@H](O)[C@H]4O)C(C)(C)[C@@H]3CC[C@]12C [Rh2]
conversion by PgUGT71A1 (product formed), HPLC (PgUGT71A1): Rh2 to F2
conversion by PgUGT71A1 (product formed), TLC (PgUGT71A1): Rh2 to F2
reaction with PgUGT71A1 confirmed by thin-layer chromatography (PgUGT71A1): reaction occurred

CC(C)=CCC[C@](C)(O)[C@H]1CC[C@]2(C)[C@@H]1[C@H](O)C[C@@H]1[C@@]3(C)CC[C@H](O)C(C)(C)[C@@H]3[C@@H](O)C[C@]12C [PPT, protopanaxatriol]
conversion by PgUGT71A1 (product formed), HPLC (PgUGT71A1): PPT to F1
conversion by PgUGT71A1 (product formed), TLC (PgUGT71A1): PPT to F1
reaction with PgUGT71A1 confirmed by thin-layer chromatography (PgUGT71A1): reaction occurred

CC/C=C\CC1C(=O)CCC1CC(=O)OC (stereo not shown) [MeJA, methyl jasmonate]
expression of PgUGT71A1 after MeJA treatment (PgUGT71A1 expression): significantly enhanced
